According to patent publication EP2135515A1, “Taste enhancing compound” (FIRMENICH SA, priority 2008, dated 2009):

Assay: Half-tongue test: recognition threshold for velvety mouthcoating, trained sensory panel
Assay type: in vivo
Details: Homo sapiens, pH 4.5, read-out: Mouthfeel threshold
Method: The threshold at which the compound delivered a noticeable velvety mouthcoating was evaluated as follows:
The isolated compound was suspended in water, and, after removing the volatiles in high vacuum (<5 mPa), was freeze-dried twice.
The freeze-dried sample was taken up in water, adjusted to pH 4.5 using hydrochloric acid, and stepwise diluted (1+1) with water. This is referred to herein as "sample 1". A second sample was prepared comprising water (Evian®) adjusted to pH 4.5 using hydrochloric acid. This is referred to herein as "sample 2". Both samples were stored at room temperature.
Twelve panelists with no history of known taste disorders were trained to evaluate the taste of aqueous solutions (2 mL each) of the following standard taste compounds in bottled water (pH 4.5) by using a triangle test as described in the literature (20): sucrose (50 mmol/L) for sweet taste, lactic acid (20 mmol/L) for sour taste, NaCl (20 mmol/L) for salty taste, caffeine (1 mmol/L) for bitter taste, sodium glutamate (3 mmol/L) for umami taste. For the puckering astringency and the velvety astringent, mouth-drying oral sensation, the panel was trained by using gallustannic acid (0.05%) and quercetin-3-O-β-D-glucopyranoside (0.01 mmol/L), respectively, using the half-tongue test (see Scharbert S., Holzmann N., Hofmann T. Identification of the astringent taste compounds in black tea infusions by combining instrumental analysis and human bioresponse. J. Agric. Food Chem. 2004, 52, 3498-3508).
Samples 1 and 2 were presented in order of increasing concentrations to the panel. The panelists, wearing noseclips, were asked to determine the dilution at which a difference was detectable between the samples using the "half-tongue" test. The test was performed three times. When the panelist selected correctly, the same concentration was presented again besides one blank as a proof for the correctness of the data. The geometric mean of the last and the second last concentration was calculated and taken as the individual recognition threshold. The values between individuals and between five separate sessions differed by not more than plus or minus one dilution step.
For comparison with the mouthfeel-enhancing threshold of known ingredients in vanilla extract, the half-tongue test was repeated using vanillic acid, p-hydroxybenzoic acid, guaiacol, p-hydroxybenzaldehyde and vanillin respectively instead of sample 1.

With O=Cc1ccc(O)cc1 [p-hydroxybenzaldehyde] as the compound, how does the minimal effective concentration read?
Its minimal effective concentration is 205 µM.

Same assay, conditions: Homo sapiens; half-tongue test, in water pH 4.5, twelve trained panelists wearing noseclips; geometric mean of last and second last concentration; read-out: Mouthfeel threshold

Which minimal effective concentration does the source give for O=C(O)c1ccc(O)cc1 [p-hydroxybenzoic acid] here?
Its minimal effective concentration is 250 µM.

With COc1cc(-c2cc(OC)c(O)c(-c3ccc(O)c(OC)c3)c2)ccc1O [Sample 1, triguaiacol] as the compound, how does the minimal effective concentration read?
The minimal effective concentration was 0.01 µM.

With COc1cc(C=O)ccc1O [Vanillin] as the compound, how does the minimal effective concentration read?
The minimal effective concentration was 150 µM.

For COc1ccccc1O [Guaiacol], which minimal effective concentration is on record?
The minimal effective concentration was 240 µM.

Which minimal effective concentration does the source give for COc1cc(C(=O)O)ccc1O [Vanillic acid] here?
Its minimal effective concentration is 320 µM.
